From publication PMC7321382, “Synthesis and Antibacterial Analysis of Analogues of the Marine Alkaloid Pseudoceratidine” (Molecules, 2020)
Converted amounts (≈) assume the structure as drawn.

Columns and labels:
S. aureus 16207 = experiment: Antibacterial MIC, broth microdilution, S. aureus; format: cell-based, Staphylococcus aureus; conditions: Staphylococcus aureus, 16207; Gram-positive; 24 h incubation; highest concentration tested 32 µM
Description: (§1) The MIC was determined using the broth microdilution method. Mueller Hinton (MH) broth base was prepared in milli-Q water, then autoclaved at 120 °C for 1 h before allowing it to cool to room temperature. A single colony of each bacterial strain (E. coli DH5α and S. aureus 16207) was inoculated in MHB and incubated at 37 °C overnight. Overnight cultures were adjusted to 10^6 CFU/mL in MHB according to the McFarland Standard,100 μL of which was further diluted to a total of 10 mL in the media. The stock solutions of the compounds were prepared at 12.8 mM in purified DMSO. The stock solutions were further diluted in milli-Q water to 64 μM in 0.5% DMSO for testing against S. aureus, and 256 μM in 2% DMSO for testing against E. coli. Compounds that were not soluble in these solvent mixtures were further diluted in half to get clear solutions for the bioassay. DMSO is known to have weak antibacterial activity. To exclude the antibacterial effect of DMSO from the results, a solution of 2% DMSO in milli-Q water was used as an additional control in the experiments. The compounds and three controls (the natural product pseudoceratidine 1 for both strains, streptomycin for S. aureus, and polymyxin B for E. coli) then underwent a dilution series. The assay was performed by adding 50 μL of each compound solution at the different concentrations and 50 μL of the diluted bacterial culture to the different wells of a 96-well microtiter plate. The experiments were performed at least thrice and in triplicates. MIC after 24 h of incubation was determined by both visual inspection and absorbance at 600 nm using an EnSpire Multimode plate reader.

E. coli DH5α = experiment: Antibacterial MIC, broth microdilution, E. coli; format: cell-based, Escherichia coli; conditions: Gram-negative, 24 h incubation, highest concentration tested 128 µM, † lower starting concentration due to insolubility; for MIC: Escherichia coli
Description: as §1

Compound | MIC (S. aureus 16207) [µM] | MIC (E. coli DH5α) [µM] | melting point [°C] | MIC E. Coli (E. coli DH5α) [µM]
CC(C)(C)OC(=O)NCCCNC(=O)c1cc(Br)c[nH]1 [Compound 28d] | > 32 | > 128 | – | –
[H]/N=C(/N)N[C@H]1[C@H](O)[C@@H](O)[C@H](O[C@@H]2O[C@@H](C)[C@](O)(C=O)[C@H]2O[C@@H]2O[C@@H](CO)[C@H](O)[C@@H](O)[C@@H]2NC)[C@@H](N/C(N)=N\[H])[C@@H]1O [Streptomycin, streptomycin, reference compound] | 0.625 to 1.25 (≈ 0.363 to 0.727 µg/mL) | – | – | –
O=C(NCCCCCCNCCCCCCNC(=O)c1cc(I)c[nH]1)c1cc(I)c[nH]1 [Compound 15f] | > 32 | > 64 | 174 to 176 | –
O=C(NCCNCCNC(=O)c1ccc[nH]1)c1ccc[nH]1 [Compound 13a] | > 32 | > 128 | 191 to 193 | –
O=C(NCCCNCCCNC(=O)c1cc(I)c[nH]1)c1cc(I)c[nH]1 [Compound 14f] | > 32 | > 128 | 93 to 95 | –
CN(C)CCCNC(=O)c1cc(I)c[nH]1 [Compound 27f] | > 32 | > 128 | 169 to 171 | –
CN(C)CCCNC(=O)c1cc(Cl)c(Cl)[nH]1 [Compound 27c] | > 32 | > 128 | – | –
CC(C)(C)OC(=O)NCCCNC(=O)c1cc(Br)c(Br)[nH]1 [Compound 28e] | > 32 | > 128 | – | –
O=C(NCCNCCNC(=O)c1cc(Br)c[nH]1)c1cc(Br)c[nH]1 [Compound 13d] | > 32 | > 128 | 201 to 203 | –
O=C(NCCCNCCNC(=O)c1ccc[nH]1)c1ccc[nH]1 [Compound 16a] | > 32 | > 128 | 69 to 71 | –
polymyxin B [reference compound] | – | – | – | 0.3 to 0.6
CC(C)(C)OC(=O)NCCCNC(=O)c1cc(Cl)c[nH]1 [Compound 28b] | > 32 | > 128 | – | –
O=C(NCCCNCCCNC(=O)c1cc(Br)c[nH]1)c1cc(Br)c[nH]1 [Compound 14d] | > 32 | > 128 | 73 to 75 | –
O=C(NCCCNCCCNCCCNC(=O)c1cc(Br)c[nH]1)c1cc(Br)c[nH]1 [Compound 18d] | 16 to 32 (≈ 8.52 to 17 µg/mL) | 64 to 128 (≈ 34.1 to 68.1 µg/mL) | – | –
NCCCNCCNC(=O)c1cc(Br)c(Br)[nH]1 [Compound 23] | > 32 | > 128 | – | –
O=C(NCCCCCCNCCCCCCNC(=O)c1cc(Br)c[nH]1)c1cc(Br)c[nH]1 [Compound 15d] | > 32 | > 64 | 178 to 180 | –
O=C(NCCCNCCNC(=O)c1cc(Cl)c[nH]1)c1cc(Cl)c[nH]1 [Compound 16b] | > 32 | > 128 | 167 to 169 | –
O=C(NCCCCNCCCNC(=O)c1cc(Cl)c[nH]1)c1cc(Cl)c[nH]1 [Compound 17b] | > 32 | > 128 | 80 to 81 | –
O=C(NCCCNCCCCNCCCNC(=O)c1cc(Br)c[nH]1)c1cc(Br)c[nH]1 [Compound 19d] | 16 to 32 (≈ 8.74 to 17.5 µg/mL) | 64 to 128 (≈ 35 to 69.9 µg/mL) | 173 to 175 | –
CC(C)(C)OC(=O)NCCCNC(=O)c1cc(Cl)c(Cl)[nH]1 [Compound 28c] | > 32 | > 128 | 158 to 160 | –
CC(C)(C)OC(=O)NCCCNC(=O)c1ccc[nH]1 [Compound 28a] | > 32 | > 128 | 90 to 91 | –
CN(C)CCCNC(=O)c1ccc[nH]1 [Compound 27a] | > 32 | > 128 | – | –
O=C(NCCCNCCCNCCCNC(=O)c1cc(I)c[nH]1)c1cc(I)c[nH]1 [Compound 18f] | 16 to 32 (≈ 10 to 20 µg/mL) | 64 to 128 (≈ 40.1 to 80.2 µg/mL) | 78 to 80 | –
CC(C)(C)OC(=O)NCCCNC(=O)c1cc(I)c[nH]1 [Compound 28f] | > 32 | > 128 | 128 to 130 | –

Compound | MIC (S. aureus 16207) [µM] | MIC (E. coli DH5α) [µM] | melting point [°C] | MIC E. Coli (E. coli DH5α) [µM]
O=C(NCCCNCCNC(=O)c1cc(Br)c[nH]1)c1cc(Br)c[nH]1 [Compound 16d] | > 32 | > 128 | 188 to 190 | –
CN(C)CCCNC(=O)c1cc(Br)c(Br)[nH]1 [Compound 27e] | > 32 | > 128 | – | –
O=C(NCCCCCCNCCCCCCNC(=O)c1cc(Cl)c[nH]1)c1cc(Cl)c[nH]1 [Compound 15b] | > 32 | > 128 | 106 to 108 | –
O=C(NCCNCCNC(=O)c1cc(Cl)c[nH]1)c1cc(Cl)c[nH]1 [Compound 13b] | > 32 | > 128 | 199 to 201 | –
NCCCNCCNC(=O)c1cc(Br)c[nH]1 [Compound 21] | > 32 | > 128 | – | –
O=C(NCCCNCCCCNCCCNC(=O)c1ccc[nH]1)c1ccc[nH]1 [Compound 19a] | > 32 | > 128 | 175 to 176 | –
O=C(NCCNCCNC(=O)c1cc(Cl)c(Cl)[nH]1)c1cc(Cl)c(Cl)[nH]1 [Compound 13c] | > 32 | > 64 | > 230 | –
O=C(NCCCCNC(=O)c1ccc[nH]1)c1ccc[nH]1 [Compound 12a] | > 32 | > 128 | 215 to 216 | –
NCCNCCCNC(=O)c1cc(Br)c[nH]1 [Compound 22] | > 32 | > 128 | – | –
O=C(NCCCNCCNC(=O)c1cc(I)c[nH]1)c1cc(I)c[nH]1 [Compound 16f] | > 32 | > 128 | 178 to 180 | –
O=C(NCCCNCCCCNCCCNC(=O)c1cc(Cl)c[nH]1)c1cc(Cl)c[nH]1 [Compound 19b] | > 32 | > 128 | 194 to 195 | –
O=C(NCCCCNC(=O)c1cc(I)c[nH]1)c1cc(I)c[nH]1 [Compound 12f] | > 32 | > 64 | – | –
O=C(NCCCCNCCCNC(=O)c1cc(Br)c[nH]1)c1cc(Br)c[nH]1 [Compound 17d] | > 32 | > 128 | – | –
O=C(NCCCCNCCCNC(=O)c1cc(I)c[nH]1)c1cc(I)c[nH]1 [Compound 17f] | > 32 | > 128 | 89 to 90 | –
NCCNCCCNC(=O)c1cc(Br)c(Br)[nH]1 [Compound 24] | > 32 | > 128 | – | –
O=C(NCCNCCNC(=O)c1cc(Br)c(Br)[nH]1)c1cc(Br)c(Br)[nH]1 [Compound 13e] | > 32 | > 64 | > 230 | –
O=C(NCCCNCCCNCCCNC(=O)c1cc(Cl)c[nH]1)c1cc(Cl)c[nH]1 [Compound 18b] | > 32 | 64 to 128 (≈ 28.4 to 56.8 µg/mL) | – | –
CN(C)CCCNC(=O)c1cc(Br)c[nH]1 [Compound 27d] | > 32 | > 128 | – | –
CN(C)CCCNC(=O)c1cc(Cl)c[nH]1 [Compound 27b] | > 32 | > 128 | – | –
NCCNCCNC(=O)c1ccc[nH]1 [Compound 20] | > 32 | > 128 | – | –
O=C(NCCCNCCCNCCCNC(=O)c1ccc[nH]1)c1ccc[nH]1 [Compound 18a] | > 32 | > 128 | – | –
O=C(NCCCCNCCCNC(=O)c1cc(Cl)c(Cl)[nH]1)c1cc(Cl)c(Cl)[nH]1 [Compound 17c] | > 32 | 128 to 256 (≈ 60.1 to 120 µg/mL) | – | –
O=C(NCCCCNCCCNC(=O)c1ccc[nH]1)c1ccc[nH]1 [Compound 17a] | > 32 | > 128 | – | –
